{"source": "patent US10561665B2", "about": "“Treatment of autism” (priority 2014, dated 2020)", "key": {"cholinesterase [1]": {"tested_on": "cholinesterase", "assay": "cholinesterase inhibition (IC50)", "format": "biochemical"}, "CaCo-2 cells": {"tested_on": "CaCo-2 cells", "assay": "in vitro permeability of a layer of CaCo-2 cells", "format": "in vitro ADME, human", "conditions": "predicted from CaCo-2 permeability"}, "[2]": {"assay": "liver microsome stability", "format": "in vitro ADME, Mouse", "conditions": "for half-life at 5 μM: mouse, liver microsomes"}, "Mecp2 mice [3]": {"tested_on": "Mecp2 mice", "assay": "locomotor activity (photobeam) in Mecp2 mutant mice and controls", "format": "in vivo", "conditions": "0.1 to 20 mg/kg", "method": "Locomotor activity was monitored using methods described previously (Shaevitz et al. 2013 Genes Brain Behav, 12(7): 732-40. doi: 10.1111/gbb.12070). Mecp2 mutant males (between 1 and 3 months old) and females (between 3 and 6 months old) and age-matched controls were monitored for one-hour prior to and 12 hours after drug (or vehicle: 20% DMSO in saline) administration (one set of mice received IP injections and one set of mice received oral gavage) in doses that ranged from 0.1-20 mg/kg). Activity was measured across the 12-h dark cycle using a photobeam activity system (San Diego instruments, San Diego, Calif., USA). Mice were placed individually into a cage (47×25×21 cm) inside a rectangular arena equipped with a 3×8 array of photobeams. The average number of ambulatory (two adjacent) and fine (repeated single) beam breaks per hour over the 12 h was compared. [N=2 mice/group at each dose and each administration route; for the vehicle controls, N=6 WT/group; N=6 Mecp2/group]. Data were analyzed using repeated measures analysis of variance."}, "Mecp2 mice [4]": {"tested_on": "Mecp2 mice", "assay": "respiratory function (plethysmograph) in Mecp2 mutant mice and controls", "format": "in vivo", "conditions": "IP or gavage, 0.1 to 20 mg/kg", "method": "Respiratory function was monitored in a plethysmograph (EMKA Technologies) for 30 minutes prior to and 1 hour after drug administration (one set of mice received IP injections and one set of mice received oral gavage). [N=2 mice/group at each dose and each administration route; for the vehicle controls, N=6 WT/group; N=6 Mecp2/group]. Data were analyzed using repeated measures analysis of variance."}, "female Mecp2 mice": {"tested_on": "female Mecp2 mice", "assay": "novel object recognition (NOR) task in female Mecp2 mice", "format": "in vivo", "conditions": "Mecp2 females", "method": "Cognitive function was assessed using the novel object recognition (NOR) task using methods previously described (Schaevitz et al. 2013). […] Novel object memory was assessed during three sessions. This task relies on the innate tendency of a mouse to explore unfamiliar objects vs. familiar objects. Testing was performed in an open-field arena. Twenty-four hours prior to training, mice were habituated to the arena for 10 min. Ninety minutes before training, the mice were administered drug or vehicle (0.1, 0.5, 1.0, 2.5 and 5.0 mg/kg IP). During training, mice were given 10 min to explore two identical Lego objects (A+A). Short- and long-term object memory were assessed in two subsequent sessions ([…]) during which mice were given 10 min to explore the familiar (A) or a novel (B or C) object. The duration of exploration (defined as the mouse's snout or forelimbs physically touching or approaching within 1 cm of an object) of familiar and novel objects was measured. The amount of time spent exploring the novel object over the total time exploring both novel and familiar objects in each session was used to measure object memory. [N=6/dose of 0.1, 0.5 and 1.0; N=1/dose of 2.5 and 5.0 mg/kg; for vehicle N=6 WT and N=6 Mecp2 mice.]\nFor the novel objection recognition task data, we created a matrix of all wildtype and Mecp2 females who were administered the vehicle and a second matrix comparing Mecp2 females with and without the drug (all doses combined)."}, "cholinesterase [5]": {"biological_target": "cholinesterase", "conditions": "cholinesterase inhibitor (Han et al 1991); cited from earlier work"}, "α7 nicotinic receptors": {"biological_target": "T1, α7 nicotinic receptors (Rattus norvegicus, UniProt Q05941)", "T1 construct": "Primary cultured rat neurons can be depolarized by the application of 1.5 mM choline; endogenous in cells; host or cells: primary cultured rat neurons", "T1 sequence (Q05941 23-502)": "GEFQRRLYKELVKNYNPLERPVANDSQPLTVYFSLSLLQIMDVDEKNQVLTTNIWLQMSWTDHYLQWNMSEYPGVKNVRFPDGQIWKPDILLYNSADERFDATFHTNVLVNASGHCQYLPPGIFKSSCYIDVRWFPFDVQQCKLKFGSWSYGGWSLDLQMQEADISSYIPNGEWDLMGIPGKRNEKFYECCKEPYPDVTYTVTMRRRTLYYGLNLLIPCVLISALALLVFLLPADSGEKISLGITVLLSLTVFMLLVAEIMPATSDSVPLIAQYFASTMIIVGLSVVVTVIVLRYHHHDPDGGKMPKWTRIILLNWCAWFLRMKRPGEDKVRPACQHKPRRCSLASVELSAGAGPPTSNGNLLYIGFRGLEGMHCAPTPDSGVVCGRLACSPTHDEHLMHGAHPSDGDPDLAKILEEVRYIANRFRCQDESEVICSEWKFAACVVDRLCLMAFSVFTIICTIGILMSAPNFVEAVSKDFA", "conditions": "cited from earlier work"}, "mice": {"tested_on": "mice", "conditions": "cited from earlier work; for adverse effects at very high doses: 50-100 mg/kg"}, "[6]": {"tested_on": "mice with lesions of the nucleus basalis magnocellularis", "conditions": "cited from earlier work; for increase of time remaining in the lighted compartment versus saline: nBM lesioned mice, compound given during training, optimal performance; for best dose for memory enhancement: passive avoidance, 24 hour retention"}, "[7]": {"assay": "stability in mouse plasma"}, "[8]": {"conditions": "human patients; cited from earlier work"}, "ASD patients": {"tested_on": "ASD patients", "conditions": "case reports, open-label and poorly documented studies; cited from earlier work"}, "[9]": {"tested_on": "patient with 15q13.3 deletion syndrome", "conditions": "one patient; cited from earlier work"}, "[10]": {"tested_on": "mild cognitive impairment population", "conditions": "patients with mild cognitive impairment; cited from earlier work"}, "[11]": {"conditions": "5.0 μM, Mouse, read-out: NADPH-dependent T1/2 (half-life)"}, "[12]": {"conditions": "5.0 μM, Mouse, read-out: NADPH-free T1/2 (half-life)"}, "[13]": {"conditions": "all doses combined (0.1-5.0 mg/kg IP)"}}, "note": "Where two headings read alike, the source gives them in different places."}
{"compound": "CCCCNC(=O)O[C@H]1C=C[C@@]23CCN(C)Cc4ccc(OC)c(c42)O[C@H]3C1", "note": "[Galantamine n-butylcarbamate, n-butylcarbamate derivative of galantamine]", "values": [{"measurement": "cholinesterase inhibitory potency relative to galantamine", "setting": "cholinesterase [1]", "result": "about 36%"}, {"measurement": "predicted oral bioavailability", "setting": "CaCo-2 cells", "result": 80, "unit": "%"}, {"measurement": "NADPH-dependent CLint (microsomal intrinsic clearance)", "setting": "[2]; 5.0 μM, Mouse", "result": 23.5, "unit": "μl min^−1 mg−^1"}, {"measurement": "NADPH-free CLint (microsomal intrinsic clearance)", "setting": "[2]; 5.0 μM, Mouse", "result": 0.0, "unit": "μl min^−1 mg−^1"}, {"measurement": "half-life at 5 μM", "setting": "[2]; [11]", "result": 1.64, "unit": "h"}, {"measurement": "half-life at 5 μM", "setting": "[2]; [12]", "result": "> 1", "unit": "h"}, {"measurement": "half-life at 5 μM", "setting": "[2]; in-vitro preparation of liver microsomes, read-out: half-life in liver microsomes", "result": "> 1", "unit": "h"}, {"measurement": "tolerability", "setting": "Mecp2 mice [3]; Mecp2 mice of both sexes and controls, locomotor and respiratory functions", "result": "safe and well tolerated"}, {"measurement": "effect on locomotor activity", "setting": "Mecp2 mice [3]; IP or gavage, Mecp2 mice of either sex", "result": "did not impair locomotor activity"}, {"measurement": "effect on respiratory activity", "setting": "Mecp2 mice [4]", "result": "did not affect respiratory activity"}, {"measurement": "NOR task learning versus vehicle", "setting": "female Mecp2 mice; Chi square p=0.0321", "result": "learned the NOR task significantly better than vehicle-injected Mecp2 mice"}, {"measurement": "share of mice with NOR scores = or below 0.5", "setting": "female Mecp2 mice; [13]", "result": 65, "unit": "%"}, {"measurement": "share of mice with NOR scores above 0.5", "setting": "female Mecp2 mice; [13]", "result": 35, "unit": "%"}, {"measurement": "IC50", "setting": "cholinesterase [5]", "result": 1090, "unit": "nM"}, {"measurement": "effect of FK-1 antibody on the enhancement", "setting": "α7 nicotinic receptors; antibody to the galantamine recognition site on nicotinic receptors", "result": "blocked by the antibody to the galantamine recognition site on nicotinic receptors, FK-1"}, {"measurement": "adverse effects at very high doses", "setting": "mice; listed as n-butylcarbamate", "result": "wobbly and off-balance with rapid heart rate still present at 4 hours, but were recovered at 24 hours"}, {"measurement": "adverse effects at very high doses", "setting": "mice", "result": "affects cardiac and motor functions at very high doses"}, {"measurement": "lethality (dose without lethality)", "setting": "mice", "result": "> 100", "unit": "mg/kg"}, {"measurement": "increase of time remaining in the lighted compartment versus saline", "setting": "[6]", "result": "about 100 seconds"}, {"measurement": "best dose for memory enhancement", "setting": "[6]", "result": 0.5, "unit": "mg/kg"}, {"measurement": "stability in mouse plasma", "setting": "[7]", "result": "stable for greater than two hours"}, {"measurement": "concentration at two hours compared with galantamine", "setting": "[7]; two hours", "result": "slightly lower than those of galantamine"}]}
{"compound": "COc1ccc2c3c1O[C@H]1C[C@@H](O)C=C[C@@]31CCN(C)C2", "note": "[Galantamine]", "values": [{"measurement": "enhancement of the depolarization caused by choline", "setting": "α7 nicotinic receptors; 1 μM compound, 1.5 mM choline, primary cultured rat neurons", "result": "20.6±4.2", "unit": "%"}, {"measurement": "plasma half-life", "setting": "[8]", "result": "about 7 hours"}, {"measurement": "increase of time remaining in the lighted compartment versus saline", "setting": "[6]", "result": "about 125 seconds"}, {"measurement": "best dose for memory enhancement", "setting": "[6]", "result": 3, "unit": "mg/kg"}, {"measurement": "clinical outcome in ASD", "setting": "ASD patients", "result": "some beneficial results"}, {"measurement": "episodes of rage", "setting": "[9]", "result": "striking decrease in episodes of rage"}, {"measurement": "mortality in mild cognitive impairment", "setting": "[10]", "result": "increased mortality"}]}
{"compound": "COc1ccc2c3c1O[C@H]1C[C@@H](O)C=C[C@@]31CCN(C)C2", "note": "[Galanthamine HBr, reference compound]", "values": [{"measurement": "NADPH-dependent CLint (microsomal intrinsic clearance)", "setting": "[2]; 5.0 μM, Mouse", "result": 0.0, "unit": "μl min^−1 mg−^1"}, {"measurement": "NADPH-free CLint (microsomal intrinsic clearance)", "setting": "[2]; 5.0 μM, Mouse", "result": 0.0, "unit": "μl min^−1 mg−^1"}, {"measurement": "half-life at 5 μM", "setting": "[2]; [11]", "result": "> 1", "unit": "h"}, {"measurement": "half-life at 5 μM", "setting": "[2]; [12]", "result": "> 1", "unit": "h"}]}
